Assay results from patent publication US4574127A, “Oxazoles and thiazoles containing an aminohydroxypropoxyphenyl moiety” (Merck & Co., Inc., priority 1984, dated 1986).

Assays:
[1] = target: T1, β1-receptor (Cavia porcellus, UniProt H0W3H1); experiment: in vitro β-adrenergic blocking activity: inhibition of positive chronotropic actions of isoproterenol in isolated guinea pig atrial preparations; conditions: vs isoproterenol, read-out: β1 pA2 (converted)
T1 construct: isolated guinea pig atrial preparations; from tissue; host or cells: guinea pig atria
T1 sequence (H0W3H1 1-470): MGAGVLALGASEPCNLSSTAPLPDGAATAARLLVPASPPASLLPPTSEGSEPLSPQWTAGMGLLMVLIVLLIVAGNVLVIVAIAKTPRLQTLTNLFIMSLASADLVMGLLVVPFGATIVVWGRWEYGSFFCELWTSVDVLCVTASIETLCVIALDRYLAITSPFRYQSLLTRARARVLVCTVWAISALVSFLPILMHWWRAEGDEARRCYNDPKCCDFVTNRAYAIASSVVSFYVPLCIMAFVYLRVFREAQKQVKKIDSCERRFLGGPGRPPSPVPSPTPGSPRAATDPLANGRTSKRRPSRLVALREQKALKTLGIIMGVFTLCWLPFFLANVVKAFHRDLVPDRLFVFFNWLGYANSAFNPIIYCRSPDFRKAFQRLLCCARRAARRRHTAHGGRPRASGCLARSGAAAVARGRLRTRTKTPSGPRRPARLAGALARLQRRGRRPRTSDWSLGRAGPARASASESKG
Procedure: (§1) Expressed in different terms, a smaller amount of a compound of the invention is required to block isoproterenol-induced elevation in heart rate than is required to block the isoproterenol-induced relaxation of the bronchi. […] Med. Chem., 26, 956-7 (1983) pursuant to which in vitro β-adrenergic blocking activity is determined by the interaction with β1 -receptor via inhibition of the positive chronotropic actions of isoproterenol in isolated guinea pig atrial preparations. β2 potency is determined by using isolated guinea pig tracheal chains contracted with PGF2α and by measuring inhibition of isopreterenol-induced relaxation.

[2] = target: T2, β2 (Cavia porcellus, UniProt Q8K4Z4); experiment: β2 potency: inhibition of isoproterenol-induced relaxation of isolated guinea pig tracheal chains contracted with PGF2α; conditions: isolated guinea pig tracheal chains contracted with PGF2α, vs isoproterenol, in vitro; for Kb: read-out: β2 pA2 (converted)
T2 construct: isolated guinea pig tracheal chains; from tissue; host or cells: guinea pig trachea
T2 sequence (Q8K4Z4 whole entry): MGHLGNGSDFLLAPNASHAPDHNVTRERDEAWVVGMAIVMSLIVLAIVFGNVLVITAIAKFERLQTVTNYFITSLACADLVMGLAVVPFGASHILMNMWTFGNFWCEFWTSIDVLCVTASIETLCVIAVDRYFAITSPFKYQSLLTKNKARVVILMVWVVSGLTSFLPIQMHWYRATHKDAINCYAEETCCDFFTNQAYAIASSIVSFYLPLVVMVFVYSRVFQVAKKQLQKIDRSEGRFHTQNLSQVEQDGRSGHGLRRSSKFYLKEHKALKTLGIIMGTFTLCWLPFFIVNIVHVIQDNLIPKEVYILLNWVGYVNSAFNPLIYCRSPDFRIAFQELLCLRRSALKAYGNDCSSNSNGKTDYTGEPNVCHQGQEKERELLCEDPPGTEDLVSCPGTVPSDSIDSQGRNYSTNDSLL
Procedure: as §1

[3] = tested on: β2; experiment: as above; conditions: ratio of ED50 for pulmonary effect (β2) : ED50 for cardiac effect (β1); over 1 = cardioselective
Procedure: as §1

Row | Kb [1] [nM] | Kb [2] [nM] | β2 pA2 [2] | Compound | β2:β1 ratio (cardioselectivity) [3]
1 | 2340 | 200000 |  | OC(CNC1CC1)COc1ccc(-c2nccs2)cc1 (stereo not drawn) [Example 3, 2-[p-(3-Cyclopropylamino-2-hydroxypropoxy)phenyl]thiazole] | 85
2 | 1120 |  | 4.67 | COc1ccc(CCNCC(O)COc2ccc(-c3ncco3)cc2)cc1OC (stereo not drawn) [Example 1, 2-{p-[3-(3,4-Dimethoxyphenethylamino)-2-hydroxypropoxy]phenyl}oxazole] | 19
3 | 58.9 | 47900 |  | COc1ccc(CCNC[C@H](O)COc2ccc(-c3nccs3)cc2)cc1OC [Example 2, (S) 2-{p-[3-(3,4-Dimethoxyphenylethyl)amino-2-hydroxypropoxy]phenyl}thiazole] | 813
